By IC50 is commonly meant the concentration at which inhibition is half-maximal. The low end stands for higher potency, the high end for lower potency.

Here are results for six compounds from article PMC12136037, “Type II kinase inhibitors that target Parkinson’s disease–associated LRRK2” (Science Advances, 2025).

The target in assay [1] is T1, LRRK2^KW (Homo sapiens, UniProt Q5S007).
T1 construct: LRRK2 R1847 to E2527; His6-Z-tag (TEV cleavable) (N, cleaved yes); host or cells: Sf9 insect cells (baculovirus)
T1 sequence (Q5S007 1847-2527): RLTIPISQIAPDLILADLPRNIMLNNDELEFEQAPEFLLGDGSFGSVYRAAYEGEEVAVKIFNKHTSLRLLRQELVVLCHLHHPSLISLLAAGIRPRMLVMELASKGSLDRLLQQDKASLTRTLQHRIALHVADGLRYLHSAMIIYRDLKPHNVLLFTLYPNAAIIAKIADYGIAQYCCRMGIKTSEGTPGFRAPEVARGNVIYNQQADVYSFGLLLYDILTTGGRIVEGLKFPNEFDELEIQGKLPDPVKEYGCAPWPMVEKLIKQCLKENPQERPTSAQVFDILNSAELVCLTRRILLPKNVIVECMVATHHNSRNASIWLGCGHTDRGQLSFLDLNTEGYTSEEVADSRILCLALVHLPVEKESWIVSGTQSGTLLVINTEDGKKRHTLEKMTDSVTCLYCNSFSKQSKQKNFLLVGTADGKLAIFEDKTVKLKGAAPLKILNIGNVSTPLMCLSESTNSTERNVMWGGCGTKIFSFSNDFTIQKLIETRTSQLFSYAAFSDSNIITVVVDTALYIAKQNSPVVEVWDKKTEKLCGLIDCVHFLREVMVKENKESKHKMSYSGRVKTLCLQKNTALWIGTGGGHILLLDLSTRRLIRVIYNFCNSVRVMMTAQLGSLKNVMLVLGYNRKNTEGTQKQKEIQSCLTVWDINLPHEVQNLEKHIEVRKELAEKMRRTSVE
Nature of the assay: DSF thermal stabilization of LRRK2^KW. The assay is classed as binding. Particulars: DSF, LRRK2^KW, 10 μM inhibitor. The essentials: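 DSF on 4 μM LRRK2^KW in 20 mM Hepes pH 7.4, 150 mM NaCl, 0.5 mM TCEP, 0.5% glycerol, 20 μM GDP, 2.5 mM MgCl2 with SYPRO Orange; inhibitor at 10 μM. Tm was taken as the minimum of the first derivative of fluorescence versus temperature, relative to control.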

Assay [2] concerns the target T2, LRRK2^RCKW (Homo sapiens, UniProt Q5S007).
T2 construct: LRRK2 R1327 to E2527; His6-Z-tag (TEV cleavable) (N, cleaved yes); host or cells: Sf9 insect cells (baculovirus)
T2 sequence (Q5S007 1327-2527): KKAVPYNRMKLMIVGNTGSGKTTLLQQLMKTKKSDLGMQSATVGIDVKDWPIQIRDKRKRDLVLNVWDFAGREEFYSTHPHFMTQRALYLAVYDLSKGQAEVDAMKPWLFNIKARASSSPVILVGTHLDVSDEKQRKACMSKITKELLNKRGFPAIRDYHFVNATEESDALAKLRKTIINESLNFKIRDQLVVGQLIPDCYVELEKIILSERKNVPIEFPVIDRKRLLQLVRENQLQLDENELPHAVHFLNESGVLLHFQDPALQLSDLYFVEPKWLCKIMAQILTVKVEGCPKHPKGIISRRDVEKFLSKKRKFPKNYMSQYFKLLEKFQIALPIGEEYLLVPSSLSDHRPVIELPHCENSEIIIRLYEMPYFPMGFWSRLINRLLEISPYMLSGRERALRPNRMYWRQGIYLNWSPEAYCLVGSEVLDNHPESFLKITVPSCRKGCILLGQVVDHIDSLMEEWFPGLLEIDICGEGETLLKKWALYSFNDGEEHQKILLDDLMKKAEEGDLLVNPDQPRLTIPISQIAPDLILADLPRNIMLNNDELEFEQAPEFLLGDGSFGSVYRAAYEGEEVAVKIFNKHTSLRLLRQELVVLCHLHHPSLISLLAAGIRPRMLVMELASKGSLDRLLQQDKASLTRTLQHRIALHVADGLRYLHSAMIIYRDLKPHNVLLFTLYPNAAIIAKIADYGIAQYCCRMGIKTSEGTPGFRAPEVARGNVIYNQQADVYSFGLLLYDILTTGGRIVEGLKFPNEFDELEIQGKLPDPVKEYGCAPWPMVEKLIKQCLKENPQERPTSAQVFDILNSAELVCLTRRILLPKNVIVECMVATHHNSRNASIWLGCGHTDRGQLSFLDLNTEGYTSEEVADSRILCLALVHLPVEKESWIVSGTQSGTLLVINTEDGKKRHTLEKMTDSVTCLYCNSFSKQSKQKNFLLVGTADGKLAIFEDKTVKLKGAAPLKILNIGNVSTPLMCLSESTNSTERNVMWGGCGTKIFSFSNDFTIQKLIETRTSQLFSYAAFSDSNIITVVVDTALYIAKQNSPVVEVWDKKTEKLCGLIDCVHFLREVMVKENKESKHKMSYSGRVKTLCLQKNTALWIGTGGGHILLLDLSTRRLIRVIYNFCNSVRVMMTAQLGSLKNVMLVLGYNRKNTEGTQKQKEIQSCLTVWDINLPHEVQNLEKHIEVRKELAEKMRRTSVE
The assay is described as follows: Biochemical LRRK2 activity assay (PhosphoSense, AssayQuant SOX peptide AQT0615). The note with it: for IC50: LRRK2^RCKW kinase activity, in vitro; for normalized response (LRRK2 activity): normalized to 0% (no kinase) and 100% (no inhibitor) control, two singlicate columns per compound. The essentials:
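Controls lacked protein and compound (0%) or compound only (100%). IC50 derived by nonlinear regression of normalized response versus log[inhibitor].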

“And” between values parts separate entries of the source, which are not always exact repeats. Equal entries are not always repeated.

Consider `Cc1ccc(C(=O)Nc2ccc(CN3CCN(C)CC3)c(C(F)(F)F)c2)cc1C#Cc1c[nH]c2ncnc(N3CCOCC3)c12` [Compound 1], for which the “∆Tm (K)” value in assay [1] is 9.5 K. In assay [2], the midpoint of inhibition, the IC50, lay at 756 ± 20 nM. The “normalized response (LRRK2 activity)” value in assay [2] (log[inhibitor(mol)] -5.12494) was 7.718% and 4.844%; in assay [2] (log[inhibitor(mol)] -5.60206) it was 24.5327% and 23.4304%; in assay [2] (log[inhibitor(mol)] -6.30103), 59.5875% and 59.3462%; in assay [2] (log[inhibitor(mol)] -6.90309), 87.2332% and 86.1364%; in assay [2] (log[inhibitor(mol)] -7.30103), 105.83% and 97.719%; in assay [2] (log[inhibitor(mol)] -7.60206), 93.8691% and 88.2314%. The “normalized response (LRRK2 activity)” value is 93.7155% and 94.1323% in assay [2] (log[inhibitor(mol)] -8.09691); 97.5599% and 105.43% in assay [2] (log[inhibitor(mol)] -8.61979); 94.6588% and 101.816% in assay [2] (log[inhibitor(mol)] -9.09691); 98.0974% and 115.57% in assay [2] (log[inhibitor(mol)] -9.39794).
Consider `O=C(Nc1ccc(F)cc1)C1(C(=O)Nc2cccc(-c3c[nH]c4ncnc(N5CCOCC5)c34)c2)CC1` [Compound 2], for which the IC50 in assay [2] is 185 ± 10 nM. Moreover, the “normalized response (LRRK2 activity)” value in assay [2] (log[inhibitor(mol)] -4.82391) was -3.585% and -13.2094%; in assay [2] (log[inhibitor(mol)] -5.12494), -9.6118% and -10.6428%; in assay [2] (log[inhibitor(mol)] -5.60206), -5.033% and -3.426%; in assay [2] (log[inhibitor(mol)] -6.30103) it was 19.2953% and 18.2204%; in assay [2] (log[inhibitor(mol)] -6.90309), 61.3205% and 61.6605%; in assay [2] (log[inhibitor(mol)] -7.30103), 88.0559% and 79.7364%. For the same compound, the “normalized response (LRRK2 activity)” value was 100.582% and 98.3497% in assay [2] (log[inhibitor(mol)] -7.60206); 94.604% and 97.0225% in assay [2] (log[inhibitor(mol)] -8.09691); 106.516% and 96.1066% in assay [2] (log[inhibitor(mol)] -8.61979); 107.272% and 96.9347% in assay [2] (log[inhibitor(mol)] -9.09691); 103.198% and 102.243% in assay [2] (log[inhibitor(mol)] -9.39794).
For the compound `O=C(Nc1cccc(-c2c[nH]c3ncnc(N4CCOCC4)c23)c1)c1cccn(-c2ccc(F)cc2)c1=O` [Compound 4], the “∆Tm (K)” value in assay [1] is reported as 13.0 K. This compound also gave an IC50 in assay [2] of 167 ± 4 nM. For the same compound, the “normalized response (LRRK2 activity)” value was 9.714% and 10.3287% in assay [2] (log[inhibitor(mol)] -4.82391); 8.354% and 15.3302% in assay [2] (log[inhibitor(mol)] -6.30103); 58.3207% and 57.3774% in assay [2] (log[inhibitor(mol)] -6.90309); 76.6433% and 88.9388% in assay [2] (log[inhibitor(mol)] -7.30103); 88.7743% and 91.0393% in assay [2] (log[inhibitor(mol)] -7.60206); 93.6662% and 93.1068% in assay [2] (log[inhibitor(mol)] -8.09691). Moreover, the “normalized response (LRRK2 activity)” value in assay [2] (log[inhibitor(mol)] -8.61979) is 96.9841% and 102.616%; in assay [2] (log[inhibitor(mol)] -9.09691), 103.96% and 100.631%; in assay [2] (log[inhibitor(mol)] -9.39794), 95.5418% and 116.272%.
Turning to `Cc1cc(NC(=O)C2(C(=O)Nc3ccc(F)cc3)CC2)cc(-c2c[nH]c3ncnc(N4CCOCC4)c23)c1` [Compound 6], the “∆Tm (K)” value in assay [1] came to 10.0 K. For the same compound, it took 2150 ± 76 nM to reach half-maximal inhibition in assay [2] (IC50). In addition, the “normalized response (LRRK2 activity)” value in assay [2] (log[inhibitor(mol)] -4.82391) was 17.1176% and 19.6941%; in assay [2] (log[inhibitor(mol)] -5.12494), 21.5574% and 22.3836%; in assay [2] (log[inhibitor(mol)] -5.60206), 47.7852% and 45.6806%; in assay [2] (log[inhibitor(mol)] -6.30103) it was 71.6605% and 77.9071%; in assay [2] (log[inhibitor(mol)] -6.90309) it was 94.0943% and 97.1643%; in assay [2] (log[inhibitor(mol)] -7.30103), 97.7557% and 95.1358%. The “normalized response (LRRK2 activity)” value is 95.6902% and 98.0188% in assay [2] (log[inhibitor(mol)] -7.60206); 96.4251% and 96.973% in assay [2] (log[inhibitor(mol)] -8.09691); 102.476% and 68.784% in assay [2] (log[inhibitor(mol)] -8.61979); 101.485% and 101.404% in assay [2] (log[inhibitor(mol)] -9.09691); 101.487% and 73.6695% in assay [2] (log[inhibitor(mol)] -9.39794).
For `O=C(Nc1cccc(-c2c[nH]c3ncnc(N4CCOCC4)c23)c1)C1(C(=O)Nc2cccc3c2CCC3)CC1` [Compound 11], in assay [1], the “∆Tm (K)” value was 9.2 K. Besides, half-maximal inhibition in assay [2] (IC50) was put at 989 ± 32 nM. For the same compound, the “normalized response (LRRK2 activity)” value is 10.5992% and 8.534% in assay [2] (log[inhibitor(mol)] -4.82391); 11.3407% and 2.1893% in assay [2] (log[inhibitor(mol)] -5.12494); 26.743% and 30.013% in assay [2] (log[inhibitor(mol)] -5.60206); 46.8199% and 60.7415% in assay [2] (log[inhibitor(mol)] -6.30103); 90.6286% and 91.37% in assay [2] (log[inhibitor(mol)] -6.90309); 100.861% and 98.8124% in assay [2] (log[inhibitor(mol)] -7.30103). The “normalized response (LRRK2 activity)” value was 104.989% and 102.561% in assay [2] (log[inhibitor(mol)] -7.60206); 99.7669% and 103.043% in assay [2] (log[inhibitor(mol)] -8.09691); 100.861% and 99.0776% in assay [2] (log[inhibitor(mol)] -8.61979); 103.172% and 100.678% in assay [2] (log[inhibitor(mol)] -9.09691); 101.258% and 104.313% in assay [2] (log[inhibitor(mol)] -9.39794).
For `COc1cc(S(C)(=O)=O)ccc1Nc1nc(N(C)C)c2c(Cl)c[nH]c2n1` [Compound 37], the IC50 in assay [2] is 7.21 ± 2.1 nM. The “normalized response (LRRK2 activity)” value in assay [2] (log[inhibitor(mol)] -4.82391) was 24.6753% and 13.9482%; in assay [2] (log[inhibitor(mol)] -5.12494) it was 2.952% and 3.194%; in assay [2] (log[inhibitor(mol)] -5.60206), -7.27% and -5.12%; in assay [2] (log[inhibitor(mol)] -6.30103) it was -12.6171% and -9.349%; in assay [2] (log[inhibitor(mol)] -6.90309), -7.193% and -5.751%; in assay [2] (log[inhibitor(mol)] -7.30103) it was 5.9468% and 5.579%. Also, the “normalized response (LRRK2 activity)” value in assay [2] (log[inhibitor(mol)] -7.60206) is 17.6994% and 24.1378%; in assay [2] (log[inhibitor(mol)] -8.09691), 34.6729% and 53.1381%; in assay [2] (log[inhibitor(mol)] -8.61979), 84.0195% and 83.6411%; in assay [2] (log[inhibitor(mol)] -9.09691) it was 89.904% and 89.2624%; in assay [2] (log[inhibitor(mol)] -9.39794) it was 99.9785% and 100.571%.
